One assay deals with T1, c-kit kinase (Homo sapiens, UniProt P10721).
T1 construct: The c-kit (or kinase domain thereof) is an active kinase in AlphaScreen; poly-Histidine tag (in-house protein only) (cleaved yes); host or cells: E. coli BL21(DE3)RIL, co-expressed with PTP1B
Kind of assay: c-Kit biochemical assay, AlphaScreen, 10 μM ATP. Conditions: c-kit biochemical inhibitory activity; read-out: Biochemical activity (IC50 μM) Kit. Summed up: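 His-tagged c-Kit expressed in E. coli with co-expressed PTP1B (dephosphorylated), tag removed; 0.1 ng per reaction with biotinylated-peptide substrate in 50 mM HEPES pH 7.2, 5 mM MgCl2, 5 mM MnCl2, 5% DMSO, 10 μM ATP, 1 h at room temperature. Phosphorylation detected by AlphaScreen (streptavidin donor, PY20 acceptor beads); IC50 from 8-point 1:3 dilution series.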
On the technique in general: Alpha assays give light when donor and acceptor beads are brought close together.

For another assay, the target named is T2, c-kit mutant D816V (Homo sapiens, UniProt P10721, D816V/DEL694-753).
T2 construct: residues 551-934, kinase insertion domain residues 694-753 deleted; 6x-histidine (N); made in house; host or cells: E. coli Arctic Express (DE3) RIL (Stratagene)
Kind of assay: c-Kit mutant D816V biochemical assay, AlphaScreen. To be noted: c-kit D816V biochemical inhibitory activity; read-out: Biochemical activity (IC50 μM) Kit D816V. Summed up: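 Eight-point, threefold compound series incubated 30 min at room temperature with E. coli-produced D816V kinase, 10 μM ATP, Mg2+/Mn2+ HEPES buffer pH 7.2 and 5% DMSO. After EDTA stop, streptavidin and anti-phosphotyrosine (PY20) AlphaScreen beads gave the read-out, and IC50 was fitted from the concentration–signal curve.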

T2 sequence (P10721 with tags, fused parts or gaps DEL694-753/D816V): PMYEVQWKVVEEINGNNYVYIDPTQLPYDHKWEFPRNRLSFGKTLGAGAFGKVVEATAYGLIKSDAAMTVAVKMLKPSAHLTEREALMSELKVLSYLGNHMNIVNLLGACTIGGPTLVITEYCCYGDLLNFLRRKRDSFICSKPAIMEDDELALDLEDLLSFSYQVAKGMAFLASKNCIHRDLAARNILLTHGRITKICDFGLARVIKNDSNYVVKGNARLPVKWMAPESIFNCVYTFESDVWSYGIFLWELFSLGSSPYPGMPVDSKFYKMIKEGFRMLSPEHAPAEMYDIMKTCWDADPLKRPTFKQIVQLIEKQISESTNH
T1 sequence (P10721 26-976): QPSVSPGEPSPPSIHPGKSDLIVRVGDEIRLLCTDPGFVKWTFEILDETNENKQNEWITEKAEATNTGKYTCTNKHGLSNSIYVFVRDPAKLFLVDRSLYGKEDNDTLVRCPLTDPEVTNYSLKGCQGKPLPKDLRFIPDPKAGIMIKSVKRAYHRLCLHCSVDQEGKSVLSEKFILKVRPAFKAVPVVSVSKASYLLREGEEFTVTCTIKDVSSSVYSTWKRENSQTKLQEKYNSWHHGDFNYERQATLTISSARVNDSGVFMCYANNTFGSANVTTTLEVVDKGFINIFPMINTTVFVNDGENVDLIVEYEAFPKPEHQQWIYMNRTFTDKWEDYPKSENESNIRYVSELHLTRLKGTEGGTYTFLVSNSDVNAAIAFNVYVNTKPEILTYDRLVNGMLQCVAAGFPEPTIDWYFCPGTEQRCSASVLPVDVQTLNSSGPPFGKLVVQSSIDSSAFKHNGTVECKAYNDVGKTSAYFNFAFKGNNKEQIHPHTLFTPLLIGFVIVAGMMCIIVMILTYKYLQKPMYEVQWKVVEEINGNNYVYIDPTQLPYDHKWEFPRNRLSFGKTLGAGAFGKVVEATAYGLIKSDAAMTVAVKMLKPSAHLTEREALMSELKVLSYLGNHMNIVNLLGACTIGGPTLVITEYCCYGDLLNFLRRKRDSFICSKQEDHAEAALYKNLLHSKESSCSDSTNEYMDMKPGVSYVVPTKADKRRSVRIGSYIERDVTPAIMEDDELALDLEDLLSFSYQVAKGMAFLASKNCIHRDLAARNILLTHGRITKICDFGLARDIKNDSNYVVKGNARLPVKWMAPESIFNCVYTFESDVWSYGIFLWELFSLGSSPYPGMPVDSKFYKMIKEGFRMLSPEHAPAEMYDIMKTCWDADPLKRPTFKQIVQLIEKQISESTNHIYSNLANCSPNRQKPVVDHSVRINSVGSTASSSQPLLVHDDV

One may read the IC50 as the concentration that inhibits the measured activity by half. On to `COc1cc([C@H](C)NC(=O)N2CCN(c3ncnc4[nH]c(-c5ccc(F)cc5)cc34)C[C@H]2C)ccc1Cl` [P-0649, (2R)-N-[(1S)-1-(4-chloro-3-methoxy-phenyl)ethyl]-4-[6-(4-fluorophenyl)-7H-pyrrolo[2,3-d]pyrimidin-4-yl]-2-methyl-piperazine-1-carboxamide], for which the IC50 at c-kit kinase was 1 to 10 µM; at c-kit mutant D816V it was 0.0001 to 1 µM.
As for `COc1cc(-c2cc3c(N4CCN(C(=O)N[C@@H](C)c5cccc(Cl)c5)C(C)(C)C4)ncnc3[nH]2)ccn1` [P-0650, N-[(1S)-1-(3-chlorophenyl)ethyl]-4-[6-(2-methoxy-4-pyridyl)-7H-pyrrolo[2,3-d]pyrimidin-4-yl]-2,2-dimethyl-piperazine-1-carboxamide], the IC50 on c-kit kinase was in the range of 1 to 10 µM; on c-kit mutant D816V it was 0.0001 to 1 µM.
`COc1cc(-c2cc3c(C4=CCC(NS(=O)(=O)c5ccc(OC(F)(F)F)cc5)CC4)ncnc3[nH]2)ccn1` (centres unmarked) [P-0654, N-[4-[6-(2-methoxy-4-pyridyl)-7H-pyrrolo[2,3-d]pyrimidin-4-yl]cyclohex-3-en-1-yl]-4-(trifluoromethoxy)benzenesulfonamide]: the figures for the half-maximal inhibitory concentration (IC50) at c-kit kinase and on c-kit mutant D816V were 10 to 200 µM and 0.0001 to 1 µM, respectively.
`O=S(=O)(Nc1ccc(-c2ncnc3[nH]c(Cl)cc23)cc1)c1ccc(OC(F)F)cc1` [P-0655, N-[4-(6-chloro-7H-pyrrolo[2,3-d]pyrimidin-4-yl)phenyl]-4-(difluoromethoxy)benzenesulfonamide]: the 50% inhibitory concentration (IC50) on c-kit kinase and on c-kit mutant D816V was 1 to 10 µM in each case.
As to `CC1(C)C=C(c2cc3c(N4CCC(NS(=O)(=O)c5ccc(OC(F)(F)F)cc5)CC4)ncnc3[nH]2)CC(C)(C)N1` [P-0662, N-[1-[6-(2,2,6,6-tetramethyl-1,3-dihydropyridin-4-yl)-7H-pyrrolo[2,3-d]pyrimidin-4-yl]-4-piperidyl]-4-(trifluoromethoxy)benzenesulfonamide], the concentration for half-maximal inhibition (IC50) at c-kit kinase and on c-kit mutant D816V was 1 to 10 µM in each case.
With `Cc1nc(C)c(-c2cc3c(N4CCC(NS(=O)(=O)c5ccc(OC(F)(F)F)cc5)CC4)ncnc3[nH]2)s1` [P-0664, N-[1-[6-(2,4-dimethylthiazol-5-yl)-7H-pyrrolo[2,3-d]pyrimidin-4-yl]-4-piperidyl]-4-(trifluoromethoxy)benzenesulfonamide], the half-inhibitory concentration (IC50) was in the range of 1 to 10 µM at c-kit kinase and 0.0001 to 1 µM at c-kit mutant D816V.
On to `CCc1ccc(S(=O)(=O)NC2CCN(c3ncnc4[nH]c(-c5cnn(C)c5)cc34)CC2)s1` [P-0665, 5-ethyl-N-[1-[6-(1-methylpyrazol-4-yl)-7H-pyrrolo[2,3-d]pyrimidin-4-yl]-4-piperidyl]thiophene-2-sulfonamide], for which the half-inhibitory concentration (IC50) at c-kit kinase and on c-kit mutant D816V was 0.0001 to 1 µM in each case.
`Cc1nn(C)cc1-c1cc2c(N3CCC(NS(=O)(=O)c4ccc(Cl)cc4)CC3)ncnc2[nH]1` [P-0667, 4-chloro-N-[1-[6-(1,3-dimethylpyrazol-4-yl)-7H-pyrrolo[2,3-d]pyrimidin-4-yl]-4-piperidyl]benzenesulfonamide]: the IC50 on c-kit kinase and at c-kit mutant D816V was 0.0001 to 1 µM in each case.
In the case of `Cc1nn(C)cc1-c1cc2c(N3CCC(NS(=O)(=O)c4ccc(OC(F)(F)F)cc4)CC3)ncnc2[nH]1` [P-0668, N-[1-[6-(1,3-dimethylpyrazol-4-yl)-7H-pyrrolo[2,3-d]pyrimidin-4-yl]-4-piperidyl]-4-(trifluoromethoxy)benzenesulfonamide], the IC50 on c-kit kinase and on c-kit mutant D816V was 0.0001 to 1 µM each time.
Regarding `O=S(=O)(NC1CCN(c2ncnc3[nH]c(C4=CCCC4)cc23)CC1)c1ccc(OC(F)(F)F)cc1` [P-0669, N-[1-[6-(cyclopenten-1-yl)-7H-pyrrolo[2,3-d]pyrimidin-4-yl]-4-piperidyl]-4-(trifluoromethoxy)benzenesulfonamide], the 50% inhibitory concentration (IC50) at c-kit kinase and on c-kit mutant D816V was 0.0001 to 1 µM throughout.
Turning to `Cc1ccc(S(=O)(=O)NC2CCN(c3ncnc4[nH]c(-c5cnn(C)c5)cc34)CC2C)cc1` (centres unmarked) [P-0672, 4-methyl-N-[3-methyl-1-[6-(1-methylpyrazol-4-yl)-7H-pyrrolo[2,3-d]pyrimidin-4-yl]-4-piperidyl]benzenesulfonamide], the IC50 at c-kit kinase and on c-kit mutant D816V was 0.0001 to 1 µM each time.
For the compound `CN(C)c1ncc(-c2cc3c(N4CCC(NS(=O)(=O)c5ccc(OC(F)(F)F)cc5)CC4)ncnc3[nH]2)s1` [P-0673, N-[1-[6-[2-(dimethylamino)thiazol-5-yl]-7H-pyrrolo[2,3-d]pyrimidin-4-yl]-4-piperidyl]-4-(trifluoromethoxy)benzenesulfonamide], the half-maximal inhibitory concentration (IC50) on c-kit kinase and at c-kit mutant D816V was 1 to 10 µM throughout.
As for `CCc1ccc(S(=O)(=O)NC2CCN(c3ncnc4[nH]c(C)cc34)CC2)cc1` [P-0674, 4-ethyl-N-[1-(6-methyl-7H-pyrrolo[2,3-d]pyrimidin-4-yl)-4-piperidyl]benzenesulfonamide], the IC50 at c-kit kinase was in the range of 10 to 200 µM; at c-kit mutant D816V, 1 to 10 µM.
Consider `Cc1ccc(S(=O)(=O)NC2CCN(c3ncnc4[nH]c(C)cc34)CC2)cc1` [P-0675, 4-methyl-N-[1-(6-methyl-7H-pyrrolo[2,3-d]pyrimidin-4-yl)-4-piperidyl]benzenesulfonamide], for which the results for the concentration for half-maximal inhibition (IC50) on c-kit kinase and on c-kit mutant D816V were 10 to 200 µM and 1 to 10 µM, respectively.
The like results for `CCc1ccc(S(=O)(=O)NC2CCN(c3ncnc4[nH]c(-c5cnn(C)c5)cc34)CC2)cc1` [P-0676, 4-ethyl-N-[1-[6-(1-methylpyrazol-4-yl)-7H-pyrrolo[2,3-d]pyrimidin-4-yl]-4-piperidyl]benzenesulfonamide] were, in that order, 0.0001 to 1 µM and 0.0001 to 1 µM.
The like results for `CC(C)(NC(=O)N1CC=C(c2ncnc3cc(-c4ccc(F)cc4)sc23)CC1)c1ccccc1` [P-0679, 4-[6-(4-fluorophenyl)thieno[3,2-d]pyrimidin-4-yl]-N-(1-methyl-1-phenyl-ethyl)-3,6-dihydro-2H-pyridine-1-carboxamide] were, in that order, 1 to 10 µM and 0.0001 to 1 µM.
Regarding `COc1cccc([C@H](C)NC(=O)N2CCN(c3ncnc4cc(N5CCC(F)(F)CC5)sc34)CC2(C)C)c1` [P-0680, 4-[6-(4,4-difluoro-1-piperidyl)thieno[3,2-d]pyrimidin-4-yl]-N-[(1S)-1-(3-methoxyphenyl)ethyl]-2,2-dimethyl-piperazine-1-carboxamide], the figures for the half-inhibitory concentration (IC50) at c-kit kinase and on c-kit mutant D816V were 1 to 10 µM and 0.0001 to 1 µM, respectively.
As for `CCOC(=O)N1CCN(c2cc3ncnc(N4CCN(C(=O)N[C@@H](C)c5cccc(OC)c5)C(C)(C)C4)c3s2)CC1` [P-0681, ethyl 4-[4-[4-[[(1S)-1-(3-methoxyphenyl)ethyl]carbamoyl]-3,3-dimethyl-piperazin-1-yl]thieno[3,2-d]pyrimidin-6-yl]piperazine-1-carboxylate], the figures for the IC50 on c-kit kinase and on c-kit mutant D816V were 1 to 10 µM and 0.0001 to 1 µM, respectively.
`COc1cccc([C@H](C)NC(=O)N2CCN(c3ncnc4[nH]c(C)cc34)C[C@H]2C)c1` [P-0683, (2R)-N-[(1S)-1-(3-methoxyphenyl)ethyl]-2-methyl-4-(6-methyl-7H-pyrrolo[2,3-d]pyrimidin-4-yl)piperazine-1-carboxamide]: the IC50 at c-kit kinase and at c-kit mutant D816V was 10 to 200 µM throughout.
With `Cc1cc2c(N3CCN(C(=O)N[C@@H](C)c4cccc(F)c4)[C@H](C)C3)ncnc2[nH]1` [P-0684, (2R)-N-[(1S)-1-(3-fluorophenyl)ethyl]-2-methyl-4-(6-methyl-7H-pyrrolo[2,3-d]pyrimidin-4-yl)piperazine-1-carboxamide], the IC50 at c-kit kinase was in the range of 10 to 200 µM; on c-kit mutant D816V it was 0.0001 to 1 µM.
For `COc1cccc([C@H](C)NC(=O)N2CCN(c3ncnc4[nH]c(-c5ccc(C#N)cc5)cc34)CC2(C)C)c1` [P-0687, 4-[6-(4-cyanophenyl)-7H-pyrrolo[2,3-d]pyrimidin-4-yl]-N-[(1S)-1-(3-methoxyphenyl)ethyl]-2,2-dimethyl-piperazine-1-carboxamide], the IC50 at c-kit kinase was 10 to 200 µM; on c-kit mutant D816V, 1 to 10 µM.
`C[C@H](NC(=O)N1CCN(c2ncnc3[nH]c(-c4ccc(C#N)cc4)cc23)CC1(C)C)c1cccc(F)c1` [P-0688, 4-[6-(4-cyanophenyl)-7H-pyrrolo[2,3-d]pyrimidin-4-yl]-N-[(1S)-1-(3-fluorophenyl)ethyl]-2,2-dimethyl-piperazine-1-carboxamide]: the values for the IC50 on c-kit kinase and on c-kit mutant D816V were 1 to 10 µM and 0.0001 to 1 µM, respectively.
Turning to `C[C@H](NC(=O)N1CCN(c2ncnc3[nH]c(-c4ccc(C#N)cc4)cc23)CC1(C)C)c1cccc(Cl)c1` [P-0689, N-[(1S)-1-(3-chlorophenyl)ethyl]-4-[6-(4-cyanophenyl)-7H-pyrrolo[2,3-d]pyrimidin-4-yl]-2,2-dimethyl-piperazine-1-carboxamide], the IC50 on c-kit kinase and on c-kit mutant D816V was 0.0001 to 1 µM each time.
Take `C[C@H](NC(=O)N1CCN(c2ncnc3[nH]c(-c4ccc(C#N)cc4)cc23)C[C@H]1C)c1ccc(F)cc1` [P-0690, (2R)-4-[6-(4-cyanophenyl)-7H-pyrrolo[2,3-d]pyrimidin-4-yl]-N-[(1S)-1-(4-fluorophenyl)ethyl]-2-methyl-piperazine-1-carboxamide]: the IC50 is 10 to 200 µM at c-kit kinase and 0.0001 to 1 µM at c-kit mutant D816V.
For the compound `C[C@H](NC(=O)N1CCN(c2ncnc3[nH]c(-c4ccc(C#N)cc4)cc23)C[C@H]1C)c1ccc(Cl)cc1` [P-0691, (2R)-N-[(1S)-1-(4-chlorophenyl)ethyl]-4-[6-(4-cyanophenyl)-7H-pyrrolo[2,3-d]pyrimidin-4-yl]-2-methyl-piperazine-1-carboxamide], the concentration for half-maximal inhibition (IC50) on c-kit kinase was 10 to 200 µM; at c-kit mutant D816V, 0.0001 to 1 µM.

Source of the values: patent US10227357B2, “Compounds and methods for kinase modulation, and indications therefor” (Plexxikon Inc., priority 2012, dated 2019).
